Test results as given in patent US12240844B2 (Voronoi, Inc., priority 2019, dated 2025).

Legend:
[1] = target: T1, LRRK2, LRRK2 (G2019S), DYRK1, CLK1 and TTK kinases (Homo sapiens, UniProt Q5S007); experiment: Enzyme IC50 by Kinase HotSpot service (Reaction Biology Corporation), values marked with *; format: biochemical; settings: LRRK2, ATP 10 uM
T1 construct: LRRK2 IC50 (marked with *); other: LRRK2; Kinase HotSpot service (Reaction Biology), ATP 10 uM
Method in brief: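 Radiometric-service kinase assays (Reaction Biology HotSpot protocol) run at 10 uM ATP under uniform conditions. Compounds tested as 3-fold dilution series from a top concentration of […] to give IC50.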

TTK = target: T2, TTK (Homo sapiens, UniProt P33981); experiment: scanMAX Kinase panel (DiscoverX), % control; format: binding; set-up: purchased DiscoverX; settings: <35% = active
T2 sequence (P33981 1-857): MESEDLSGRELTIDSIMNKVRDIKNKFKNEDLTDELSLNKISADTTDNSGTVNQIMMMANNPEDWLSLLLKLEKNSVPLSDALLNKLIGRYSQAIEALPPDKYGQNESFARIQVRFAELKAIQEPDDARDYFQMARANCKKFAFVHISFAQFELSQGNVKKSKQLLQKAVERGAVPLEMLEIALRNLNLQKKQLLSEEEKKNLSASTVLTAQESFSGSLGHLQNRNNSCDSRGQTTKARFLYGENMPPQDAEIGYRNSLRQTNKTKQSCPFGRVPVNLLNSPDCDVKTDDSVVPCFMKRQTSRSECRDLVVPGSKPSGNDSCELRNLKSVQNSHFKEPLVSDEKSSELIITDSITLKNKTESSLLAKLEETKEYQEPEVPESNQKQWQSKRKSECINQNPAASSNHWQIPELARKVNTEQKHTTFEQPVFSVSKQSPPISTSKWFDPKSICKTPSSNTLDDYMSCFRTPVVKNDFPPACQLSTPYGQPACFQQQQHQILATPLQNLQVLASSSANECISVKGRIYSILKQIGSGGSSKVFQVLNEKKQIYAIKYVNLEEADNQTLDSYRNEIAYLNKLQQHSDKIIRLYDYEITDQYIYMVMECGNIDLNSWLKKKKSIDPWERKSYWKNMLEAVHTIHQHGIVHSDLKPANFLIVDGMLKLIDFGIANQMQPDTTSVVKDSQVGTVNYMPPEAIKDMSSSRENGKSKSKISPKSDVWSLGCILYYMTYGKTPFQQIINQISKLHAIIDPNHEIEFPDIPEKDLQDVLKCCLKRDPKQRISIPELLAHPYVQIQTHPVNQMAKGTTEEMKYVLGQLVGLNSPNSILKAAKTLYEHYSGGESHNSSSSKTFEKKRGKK
Method in brief: (§1)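 Compounds were dissolved in DMSO and applied to the kinase panel at 1 uM. Binding was then expressed as % control against DMSO (100%) and a positive control (0%). Finally, any enzyme with % control under 35% was judged active.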

LRRK2 (G2019S) = LRRK2 (G2019S) (Homo sapiens, UniProt Q5S007, G2019S); experiment: scanMAX Kinase panel (DiscoverX), % control; format: binding; set-up: purchased DiscoverX; settings: <35% = active
Method in brief: as §1

SHP-77 = SHP-77 cancer cell proliferation inhibition (Cell Titer-Glo); format: cell-based; settings: Homo sapiens, SHP77, SHP-77 small cell lung cancer cell line, 72 hours
Method in brief: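 GI50 comes from CellTiter-Glo luminescence, read 10 min after reagent addition at RT, following 72 h compound treatment. Eleven concentrations were used (⅓ steps, highest 10 μM final) on 2000 cells/well. MDA-MB-231 and MDA-MB-468 were grown in DMEM, SHP-77 in RPMI.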

THP-1 = THP-1 GI50 (Table 4, method not given); format: cell-based; settings: Homo sapiens; THP-1 cells
TNF-α = TNF-α secretion inhibition in LPS-treated THP-1 cells (ELISA); format: cell-based; settings: Homo sapiens, compound 0.5 μM, LPS 500 ng/ml, 24 hours, read-out: THP-1/TNF-a (% inhib)
Method in brief: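 Human monocytic THP-1 cells were pre-cultured 16 h at 37° C., then treated with compound at 0.5 μM final, followed by LPS at 500 ng/ml final. After 24 h, IL-6 and TNF-α in culture supernatant were quantified by ELISA with absorbance read at 450 nm.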

Chain of LRRK2 (G2019S) (Q5S007 whole entry G2019S): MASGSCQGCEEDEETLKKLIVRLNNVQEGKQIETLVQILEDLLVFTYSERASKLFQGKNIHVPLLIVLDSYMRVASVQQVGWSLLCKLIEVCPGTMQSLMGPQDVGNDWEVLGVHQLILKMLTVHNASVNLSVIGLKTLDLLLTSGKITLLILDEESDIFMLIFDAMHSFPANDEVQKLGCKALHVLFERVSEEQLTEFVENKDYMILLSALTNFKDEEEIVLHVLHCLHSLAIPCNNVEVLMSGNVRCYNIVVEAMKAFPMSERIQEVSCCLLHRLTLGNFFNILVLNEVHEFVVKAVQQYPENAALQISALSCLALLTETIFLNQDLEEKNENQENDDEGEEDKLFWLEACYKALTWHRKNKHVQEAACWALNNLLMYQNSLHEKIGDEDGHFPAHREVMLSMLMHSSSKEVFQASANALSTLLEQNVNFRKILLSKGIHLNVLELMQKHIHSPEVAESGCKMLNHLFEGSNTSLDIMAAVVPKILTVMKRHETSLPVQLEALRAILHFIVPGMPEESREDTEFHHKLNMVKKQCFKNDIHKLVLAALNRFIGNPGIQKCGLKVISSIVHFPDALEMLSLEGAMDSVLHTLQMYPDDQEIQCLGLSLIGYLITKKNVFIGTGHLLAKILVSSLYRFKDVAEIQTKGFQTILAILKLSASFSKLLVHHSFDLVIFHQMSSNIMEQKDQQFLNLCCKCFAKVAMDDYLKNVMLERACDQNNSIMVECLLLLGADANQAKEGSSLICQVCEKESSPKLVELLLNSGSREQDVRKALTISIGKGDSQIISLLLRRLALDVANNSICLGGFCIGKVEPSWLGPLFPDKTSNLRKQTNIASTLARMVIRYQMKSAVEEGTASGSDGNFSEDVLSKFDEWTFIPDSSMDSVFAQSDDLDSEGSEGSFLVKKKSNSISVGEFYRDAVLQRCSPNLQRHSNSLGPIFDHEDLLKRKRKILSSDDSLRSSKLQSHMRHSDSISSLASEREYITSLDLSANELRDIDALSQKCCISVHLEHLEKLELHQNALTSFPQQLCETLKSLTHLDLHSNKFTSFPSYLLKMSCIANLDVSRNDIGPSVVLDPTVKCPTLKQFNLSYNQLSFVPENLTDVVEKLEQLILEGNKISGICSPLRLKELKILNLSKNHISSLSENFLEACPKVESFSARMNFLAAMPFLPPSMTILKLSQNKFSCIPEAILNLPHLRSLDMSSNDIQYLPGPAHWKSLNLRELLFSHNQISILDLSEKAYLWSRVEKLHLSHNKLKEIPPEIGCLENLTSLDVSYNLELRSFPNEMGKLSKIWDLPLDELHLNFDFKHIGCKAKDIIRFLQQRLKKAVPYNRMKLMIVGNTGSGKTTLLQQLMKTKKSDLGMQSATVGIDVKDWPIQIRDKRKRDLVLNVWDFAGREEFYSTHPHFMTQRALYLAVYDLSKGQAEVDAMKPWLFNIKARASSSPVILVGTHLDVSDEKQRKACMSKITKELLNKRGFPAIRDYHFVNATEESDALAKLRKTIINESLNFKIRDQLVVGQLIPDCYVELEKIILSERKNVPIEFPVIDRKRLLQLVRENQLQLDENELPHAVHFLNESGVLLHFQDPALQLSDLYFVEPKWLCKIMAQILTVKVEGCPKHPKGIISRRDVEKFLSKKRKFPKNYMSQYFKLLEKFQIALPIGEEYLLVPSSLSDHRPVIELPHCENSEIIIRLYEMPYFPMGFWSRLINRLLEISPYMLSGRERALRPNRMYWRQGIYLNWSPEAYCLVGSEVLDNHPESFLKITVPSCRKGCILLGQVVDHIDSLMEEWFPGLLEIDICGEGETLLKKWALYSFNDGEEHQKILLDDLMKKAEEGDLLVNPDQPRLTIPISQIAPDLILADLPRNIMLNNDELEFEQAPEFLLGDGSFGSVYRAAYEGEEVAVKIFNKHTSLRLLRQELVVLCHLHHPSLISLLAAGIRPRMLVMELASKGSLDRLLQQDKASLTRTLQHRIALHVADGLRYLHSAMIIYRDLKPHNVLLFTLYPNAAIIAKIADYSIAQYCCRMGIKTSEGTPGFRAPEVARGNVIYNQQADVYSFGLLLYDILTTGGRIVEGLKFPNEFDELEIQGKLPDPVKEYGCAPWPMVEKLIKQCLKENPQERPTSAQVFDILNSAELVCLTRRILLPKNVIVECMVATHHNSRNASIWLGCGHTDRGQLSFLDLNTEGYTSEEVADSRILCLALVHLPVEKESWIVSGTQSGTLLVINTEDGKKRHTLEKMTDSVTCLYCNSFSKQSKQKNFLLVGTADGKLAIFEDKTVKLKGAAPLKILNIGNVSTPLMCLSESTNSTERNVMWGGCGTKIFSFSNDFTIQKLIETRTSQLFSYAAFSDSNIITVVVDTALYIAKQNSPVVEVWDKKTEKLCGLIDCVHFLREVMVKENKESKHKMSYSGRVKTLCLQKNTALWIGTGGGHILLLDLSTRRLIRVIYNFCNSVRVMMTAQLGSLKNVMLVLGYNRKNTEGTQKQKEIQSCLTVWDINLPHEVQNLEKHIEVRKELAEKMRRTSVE
T1 sequence (Q5S007 whole entry G2019S): as above

Row | Compound | IC50 [1] [nM] | remaining binding at 1 µM (TTK) [%] | remaining binding at 1 µM (LRRK2 (G2019S)) [%] | GI50 (SHP-77) [nM] | GI50 (THP-1) [nM] | inhibition at 0.5 µM (TNF-α) [%]
1 | CCNc1cc(Nc2ccc(C(=O)N3C[C@@H]4C[C@H]3CO4)c3c2OCCO3)nc2[nH]cc(C(F)(F)F)c12 [Example 44, ((1S,4S)-2-oxa-5-azabicyclo[2.2.1]heptan-5-yl)(8-((4-(ethylamino)-3-(trifluoromethyl)-1H-pyrrolo[2,3-b]pyridin-6-yl)amino)-2,3-dihydrobenzo[b] [1,4]dioxin-5-yl)methanone] |  |  |  | 301 to 1000 | 146000 | 100
2 | CCNc1cc(Nc2ccc(S(=O)(=O)N3CCC(N4CCOCC4)CC3)c3c2OCCO3)nc2[nH]cc(C(F)(F)F)c12 [Example 96, N^4-ethyl-N^6-(8-((4-morpholonopiperidin-1-yl)sulfonyl)-2,3-dihydrobenzo [b] [1,4]dioxin-5-yl)-3-(trifluoromethyl)-1H-pyrrolo[2,3-b]pyridine-4,6-diamine] |  | 2.7 | 1.9 | 301 to 1000 |  | 
3 | CCNc1cc(Nc2ccc(P3(=O)CCN(C(C)=O)CC3)cc2OC)nc2[nH]cc(C(F)(F)F)c12 [Example 42, 1-(4-(4-((4-(ethylamino)-3-(trifluoromethyl)-1H-pyrrolo[2,3-b]pyridin-6-yl)amino)-3-methoxyphenyl)-4-oxido-1,4-azaphosphinan-1-yl)ethan-1-one] |  |  |  | 301 to 1000 | 16300 | 35.7
4 | CNc1cc(Nc2ccc(S(=O)(=O)N3CCC(N4CCOCC4)CC3)cc2OC)nc2[nH]cc(C(F)(F)F)c12 [Example 184, N^6-(2-methoxy-4-((4-morpholinopiperidin-1-yl)sulfonyl)phenyl)-N^4-methyl-3-(trifluoromethyl)-1H-pyrrolo[2,3-b]pyridine-4,6-diamine] | < 100 | 0.35 | 3.2 | 101 to 300 |  | 
5 | CCNc1cc(Nc2ccc(C(=O)N3CCC(N4CCOCC4)CC3)c3c2OCO3)nc2[nH]cc(C(F)(F)F)c12 [Example 37, (7-((4-(ethylamino)-3-(trifluoromethyl)-1H-pyrrolo[2,3-b]pyridin-6-yl)amino)benzo[d][1,3]dioxol-4-yl)(4-morpholinopiperidin-1-yl)methanone] |  |  |  |  | 14400 | 100
6 | CNc1cc(Nc2ccc(P3(=O)CCN(C4CC4)CC3)cc2OC)nc2[nH]cc(C(F)(F)F)c12 [Example 205, 1-cyclopropyl-4-(3-methoxy-4-((4-(methylamino)-3-(trifluoromethyl)-1H-pyrrolo[2,3-b]pyridin-6-yl)amino)phenyl)-1,4-azaphosphinane 4-oxide] |  | 5.5 | 17 |  |  | 
7 | CCNc1cc(Nc2ccc(C(=O)N3CCC(N4C[C@@H]5C[C@H]4CO5)CC3)c3c2OCC3)nc2[nH]cc(C(F)(F)F)c12 [Example 105, (4-((1S,4S)-2-oxa-5-azabicyclo[2.2.1]heptan-5-yl)piperidin-1-yl)(7-((4-(ethylamino)-3-(trifluoromethyl)-1H-pyrrolo[2,3-b]pyridin-6-yl)amino)-2,3-dihydrobenzofuran-4-yl)methanone] |  | 2.6 | 0 |  |  | 1.7
8 | CNc1cc(Nc2ccc(C(=O)N3CCC(N4CCOCC4)CC3)c3c2OCCO3)nc2[nH]cc(C(F)(F)F)c12 [Example 160, (8-((4-(methylamino)-3-(trifluoromethyl)-1H-pyrrolo[2,3-b]pyridin-6-yl)amino)-2,3-dihydrobenzo [b] [1,4]dioxin-5-yl)(4-morpholinopiperidin-1-yl)methanone] |  | 3.4 | 0.35 |  |  | 

Now from value to compound, other results behind:

Row | IC50 [1] [nM] | remaining binding at 1 µM (TTK) [%] | remaining binding at 1 µM (LRRK2 (G2019S)) [%] | GI50 (SHP-77) [nM] | GI50 (THP-1) [nM] | Compound | inhibition at 0.5 µM (TNF-α) [%]
9 | 101 to 300 | 3.5 | 31 |  |  | O=C(c1ccc(Nc2cc(C3CC3)c3c(C(F)(F)F)c[nH]c3n2)c2c1CCO2)N1CC[C@H](N2CCOCC2)C1 [Example 237, (S)-(7-((4-cyclopropyl-3-(trifluoromethyl)-1H-pyrrolo[2,3-b]pyridin-6-yl)amino)-2,3-dihydrobenzofuran-4-yl)(3-morpholinopyrrolidin-1-yl)methanone] | 
10 |  | 4.8 | 16 | 301 to 1000 | 9390 | COCCNc1cc(Nc2ccc(P3(=O)CCN(C4CC4)CC3)cc2OC)nc2[nH]cc(C(F)(F)F)c12 [Example 207, 1-cyclopropyl-4-(3-methoxy-4-((4-((2-methoxyethyl)amino)-3-(trifluoromethyl)-1H-pyrrolo[2,3-b]pyridin-6-yl)amino)phenyl)-1,4-azaphosphinane 4-oxide] | 39.8
11 | 101 to 300 | 4.1 | 38 |  |  | O=C(c1ccc(Nc2cc(C3CC3)c3c(C(F)(F)F)c[nH]c3n2)c2c1CCO2)N1CC[C@@H](N2CCOCC2)C1 [Example 238, (R)-(7-((4-cyclopropyl-3-(trifluoromethyl)-1H-pyrrolo[2,3-b]pyridin-6-yl)amino)-2,3-dihydrobenzofuran-4-yl)(3-morpholinopyrrolidin-1-yl)methanone] | 
12 |  | 3 | 1 |  |  | CNc1cc(Nc2ccc(C(=O)N3CC[C@H](N4CCOCC4)C3)c3c2OCC3)nc2[nH]cc(C(F)(F)F)c12 [Example 217, (S)-(7-((4-(methylamino)-3-(trifluoromethyl)-1H-pyrrolo[2,3-b]pyridin-6-yl)amino)-2,3-dihydrobenzofuran-4-yl)(3-morpholinopyrrolidin-1-yl)methanone] | 
